Source: ChEMBL document CHEMBL1135841, “Use of parallel-synthesis combinatorial libraries for rapid identification of potent FKBP12 inhibitors” (Bioorg Med Chem Lett, 2002)
pKi: −log10 of the molar value.

The compounds below were run against Peptidyl-prolyl cis-trans isomerase FKBP1A (Homo sapiens, UniProt P62942) (assay: Inhibition of peptidyl-prolyl isomerase (PPIase, or rotamase) activity of FK506 binding protein 12).
Sequence of Peptidyl-prolyl cis-trans isomerase FKBP1A (P62942 whole entry): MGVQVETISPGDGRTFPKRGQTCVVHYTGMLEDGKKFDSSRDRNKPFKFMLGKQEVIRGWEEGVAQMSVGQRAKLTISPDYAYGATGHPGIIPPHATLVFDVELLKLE

Point of comparison: COc1cc(CCCOC(=O)C2CCCCN2S(=O)(=O)c2ccc(C)cc2)cc(OC)c1 (stereo not given), pKi 6.40. Against it:
- O=C(OCCc1ccccc1)[C@@H]1CCCN1C(=S)NC12C[C@H]3C[C@@H](C1)C[C@@H](C2)C3 — 2.07 log units lower, 4.33
- O=C(OCCCCc1ccccc1)[C@@H]1CCCN1C(=O)NC12C[C@H]3C[C@@H](C1)C[C@@H](C2)C3 — within 0.2 log units, 6.33
- Cc1ccc(S(=O)(=O)N2CCCCC2C(=O)OCCCc2ccc(Cl)cc2)cc1 (stereo not given) — 1.04 log units lower, 5.36
- O=C(OCCCc1ccc(Br)cc1)C1CCCCN1S(=O)(=O)Cc1ccccc1 (stereo not given) — 0.83 log units lower, 5.57
- C[C@@H](NC(=O)N1CCC[C@H]1C(=O)OCCCc1ccc(Br)cc1)c1ccccc1 — lower, < 5.00
- O=C(OCCCc1ccc(F)cc1)[C@@H]1CCCN1/C(S)=N/C12C[C@H]3C[C@@H](C1)C[C@@H](C2)C3 — 0.33 log units lower, 6.07
- COc1cc(CCCOC(=O)C2CCCCN2S(=O)(=O)Cc2ccccc2)cc(OC)c1 (stereo not given) — 0.52 log units higher, 6.92
- C[C@@H](NC(=O)N1CCC[C@H]1C(=O)OCCCc1ccc(F)cc1)c1ccccc1 — 1.04 log units lower, 5.36
- O=C(OCCCc1ccc(F)cc1)C1CCCCN1S(=O)(=O)c1ccccc1 (stereo not given) — 0.27 log units lower, 6.13
- O=C(OCCCc1ccccc1)[C@@H]1CCCN1C(=O)Nc1ccccc1 — 0.31 log units lower, 6.09
- O=C(OCc1ccccc1)[C@@H]1CCCN1C(=O)Nc1ccccc1 — 1.78 log units lower, 4.62
- O=C(OCCCc1ccc(Cl)cc1)C1CCCCN1S(=O)(=O)Cc1ccccc1 (stereo not given) — within 0.2 log units, 6.38
- O=C(OCCCc1ccc(F)cc1)C1CCCCN1S(=O)(=O)Cc1ccccc1 (stereo not given) — within 0.2 log units, 6.49
- COc1ccc(CCCOC(=O)C2CCCCN2S(=O)(=O)Cc2ccccc2)cc1 (stereo not given) — 0.64 log units higher, 7.04
- COc1ccc(CCCOC(=O)C2CCCCN2S(=O)(=O)c2ccccc2)cc1 (stereo not given) — within 0.2 log units, 6.59
- O=C(OCCCc1ccccc1)[C@@H]1CCCN1C(=O)NC12C[C@H]3C[C@@H](C1)C[C@@H](C2)C3 — 0.40 log units lower, 6.00
- O=C(OCCCc1ccc(Cl)cc1)C1CCCCN1S(=O)(=O)c1ccccc1 (stereo not given) — 0.98 log units lower, 5.42
- COc1ccc(CCCOC(=O)[C@@H]2CCCN2/C(S)=N/C2CCCCC2)cc1OC — 0.67 log units higher, 7.07
- O=C(OCCCc1ccc(Cl)cc1)[C@@H]1CCCN1C(=O)NC12C[C@H]3C[C@@H](C1)C[C@@H](C2)C3 — 0.76 log units lower, 5.64
- COc1ccc(CCCOC(=O)C2CCCCN2S(=O)(=O)Cc2ccccc2)cc1OC (stereo not given) — 0.93 log units higher, 7.33
- O=C(OCCCCc1ccccc1)[C@@H]1CCCN1C(=S)NC12C[C@H]3C[C@@H](C1)C[C@@H](C2)C3 — 1.26 log units lower, 5.14
- O=C(OCCCc1ccc(F)cc1)[C@@H]1CCCN1C(=O)NC12C[C@H]3C[C@@H](C1)C[C@@H](C2)C3 — 0.48 log units lower, 5.92
- C[C@@H](NC(=O)N1CCC[C@H]1C(=O)OCCCc1ccc(Cl)cc1)c1ccccc1 — 1.18 log units lower, 5.22
- O=C(OCCCc1ccccc1)[C@@H]1CCCN1C(=S)NC12C[C@H]3C[C@@H](C1)C[C@@H](C2)C3 — 1.12 log units lower, 5.28
- O=C(OCCCc1ccc(Br)cc1)C1CCCCN1S(=O)(=O)c1ccccc1 (stereo not given) — 1.30 log units lower, 5.10
- O=C(OCCc1ccccc1)[C@@H]1CCCN1C(=O)NC12C[C@H]3C[C@@H](C1)C[C@@H](C2)C3 — 0.51 log units lower, 5.89
- COc1cc(CCCOC(=O)C2CCCCN2S(=O)(=O)c2ccccc2)cc(OC)c1 (stereo not given) — within 0.2 log units, 6.32
- O=C(OCCCc1ccc(Cl)cc1)[C@@H]1CCCN1C(=S)NC12C[C@H]3C[C@@H](C1)C[C@@H](C2)C3 — 0.58 log units lower, 5.82
- COc1ccc(CCCOC(=O)C2CCCCN2C(=O)NC23CC4CC(CC(C4)C2)C3)c(OC)c1 (stereo not given) — 1.52 log units higher, 7.92
- O=C(OCCCc1ccc(Br)cc1)[C@@H]1CCCN1C(=S)NC12C[C@H]3C[C@@H](C1)C[C@@H](C2)C3 — 1.20 log units lower, 5.20
- O=C(OCc1ccccc1)[C@@H]1CCCN1C(=O)NC12C[C@H]3C[C@@H](C1)C[C@@H](C2)C3 — 0.72 log units lower, 5.68
- O=C(OCCCc1ccc(Br)cc1)[C@@H]1CCCN1C(=O)NC12C[C@H]3C[C@@H](C1)C[C@@H](C2)C3 — 0.89 log units lower, 5.51
- COc1ccc(CCCOC(=O)C2CCCCN2S(=O)(=O)c2ccccc2)cc1OC (stereo not given) — 0.34 log units higher, 6.74
- COc1ccc(CCCOC(=O)C2CCCCN2S(=O)(=O)c2ccc(C)cc2)cc1 (stereo not given) — 0.26 log units higher, 6.66
- Cc1ccc(S(=O)(=O)N2CCCCC2C(=O)OCCCc2ccc(F)cc2)cc1 (stereo not given) — 0.55 log units lower, 5.85
- O=C(OCCc1ccccc1)[C@@H]1CCCN1C(=O)Nc1ccccc1 — 0.51 log units lower, 5.89
- O=C(OCc1ccccc1)[C@@H]1CCCN1C(=S)NC12C[C@H]3C[C@@H](C1)C[C@@H](C2)C3 — 1.66 log units lower, 4.74
- COc1ccc(CCCOC(=O)[C@@H]2CCCN2S(=O)(=O)Cc2ccccc2)cc1 — 1.26 log units higher, 7.66
- COc1ccc(CCCOC(=O)C2CCCCN2C(=O)NC23CC4CC(CC(C4)C2)C3)cc1OC (stereo not given) — 1.09 log units higher, 7.49
